Data taken from patent US20110009379A1, “INDOLINONE COMPOUND” (ASTELLAS PHARMA INC., priority 2008, published 2011).

How the values were obtained:
gastric emptying of rats = assay: Activity to gastric emptying of TRPA1 agonist (phenol red, rats); format: in vivo; settings: Rattus norvegicus; male wistar rats, oral administration, versus control animals; read-out: ED50 (amount which suppresses 50% of gastric emptying)
From the text: When EC cell is stimulated by content of a gastrointestinal tract, 5-HT is secreted. The secreted 5-HT promotes the secretion or motility through a 5-HT receptor present in intestinal nerve plexus or gastrointestinal smooth muscle. The secreted 5-HT is instantly taken into a cell by its specific transporter, and is metabolized by […]. Thus, while it is considerably difficult to directly measure the secreted 5-HT concentration, it has been known that gastric emptying is delayed as a physiological activity through 5-HT in rodents. In order to verify in vivo activity through 5-HT of the compound to be tested, activity to gastric emptying of rats by various TRPA1 agonists was studied.
In the experiment, male wistar rats (body weight 290 to 360 g) were used. The animals were purchased from Japan SLC (Shizuoka). The animals were allowed to drink water freely under a constitutive environment.
5 minutes after the medicine was orally administered, 0.05% phenol red solution (1.5 mL) was orally administered. After 15 minutes, rats were put painlessly to death by cervical vertebral dislocation, their stomachs were exenterated, and phenol red was eluted with 0.1M aqueous NaOH solution (5 mL) from the exenterated stomachs. 20% aqueous trichloroacetic acid solution (0.1 mL) was added to the NaOH solution (0.5 mL), followed by stirring and centrifugation at 15,000 rpm, at 4° C., for 10 minutes. 0.5M aqueous NaOH solution (0.2 mL) was added to the supernatant (0.05 mL), followed by stirring, and absorbance at 560 nm was measured using an absorption spectrometer (spectrometer spectramax M2; Molecular Devices, CA, USA).
A gastric emptying was calculated by the following calculating formula.
Gastric emptying (%)=100−(A/B)×100
A: amount of phenol red remaining in stomach
B: amount of phenol red remaining in stomach just after administering phenol red
ED50 values (amount of the compound to be tested which suppresses 50% of gastric emptying, with respect to the control animals without administering the compound to be tested) of some of the compounds of the formula (I) are shown in Table 2. In this connection, comparative compound 1 and comparative compound 2 are (3E)-1-methyl-3-(2-oxopropyridene)-1,3-dihydro-2H-indol-2-one, and (3E)-3-(2-oxopropyridene)-1-prop-2-in-1-yl-1,3-dihydro-2H-indol-2-one described in Non Patent Document 4 above, and has the following chemical structures, respectively.

Cytochrome P450(2D6) = Cytochrome P450(2D6) (Homo sapiens, UniProt P10635); assay: Cytochrome P450(2D6) enzyme inhibition test; format: in vitro ADME; settings: CYP2D6, fluorescent substrate 1.5 μmol/L, 37° C., 20 minutes
Description: The experiment was performed in accordance with the method of Crespi et al. (Analytical Biochemistry, 248, 188-190, 1997).
As a substrate, 3-[2-(N,N-diethyl-N-methylamino)ethyl]-7-methoxy-4-methyl coumarine (1.5 μmol/L) a compound to be tested (3.1×10^−7 to 2×10^−5 M) and an enzyme (2.5×10^−8 M) were incubated at 37° C. for 20 minutes in total of […] of 100 mM phosphorous buffer (pH=7.4) including 8.2 mM NADP+, 0.41 mM glucose-6-phosphate, 0.41 mM MgCl2 and 0.4 Units/mL glucose-6-phosphate dehydrogenase, using 96 well plates. Then, 0.5 M aqueous 2-amino-2-hydroxymethyl-1,3-propandiol solution containing 80% acetonitrile was added to stop the reaction, fluorescence intensity (excitation wavelength; 390 nm, fluorescent wavelength; 460 nm) was measured with a fluorescent plate reader. An inhibition ratio was calculated with the following formula, and the test compound concentration when the inhibition ratio is 50% (IC50) was obtained.
C1: fluorescence intensity in the presence of the test compound and enzyme at know concentrations, and the substrate
C0: fluorescence intensity in the presence of the enzyme and substrate, without the test compound
B1: fluorescence intensity of blank well

human TRPA1 = biological target: T1, human TRPA1 (Homo sapiens, UniProt O75762, K186N/R3C/R58T); assay: Measurement of TRPA1 activation activity (intracellular calcium, FLIPR, HEK293 cells stably expressing human TRPA1); format: cell-based; settings: change of intracellular calcium concentration
T1 construct: expressed in transfected cells; pcDNA3.1(+) vector)
Description: 10 ng of Human brain mRNA (Clontech Co.) was treated with DNase, and then was reverse transcribed using kit for reverse transcription-polymerase chain reaction (RT-PCR) (SUPERSCRIPT First-Strand Synthesis System for RT-PCR; Invitrogen Co.) to synthesize the first strand cDNA. PCR using a hot start method was performed using the first strand cDNA as a template and Taq DNA polymerase (LA Taq DNA polymerase; TAKARA SHUZO). The PCR was performed using oligonucleotides consisting of the nucleotide sequences, represented by sequence number 2 as a sense primer and sequence number 3 as an antisense primer, in which firstly, heat denaturation was performed at 98° C. (1 minute), and then a cycle of 98° C. (15 seconds)/56° C. (30 seconds)/72° C. (5 minutes) was repeated 35 times. As a result, a DNA fragment of about 3.3 kbp was amplified.
The DNA fragment was cloned to pCR-TOPO vector using a cloning kit (TOPO XL PCR Cloning Kit; Invitrogen). The obtained plasmid DNA was digested with restriction enzymes KpnI and HindIII, and then was cloned using plasmid pcDNA 3.1(+)(Invitrogen). In this connection, the plasmid pcDNA 3.1(+) has a promoter sequence derived from cytemegalovirus, and can be used in order to express a protein in animal cells.
The nucleotide sequences of the obtained clones were analyzed using DNA sequencer (ABI3700 DNA Sequencer; Applied Biosystems) by dideoxyterminator method, and the nucleotide sequence represented by sequence number 1 was obtained. Furthermore, when these sequences were translated to amino acid sequences, the amino acid sequence represented by sequence number 1 was obtained.
After constructing the expression vector of the human TRPA1 gene, selection by G418 was performed from the HEK293 cells which temporarily expressed TRPA1 by transfection operation to obtain cells stably expressing TRPA1. The above operation was performed according to known methods (experimental medicine supplementary volume, “Cultivation Cell Experimental Methods for Molecular Biology Study” published by Toshio Kuroki, Namho Hue and Kazuhiro Chida, 1995, Yodosha).
In order to measure the change of the intracellular calcium concentration in the cells stably expressing the human TRPA1, the change of the intracellular calcium concentration when a compound to be tested was added was measured using FLIPR (Molecular Device).
In order to measure the change of the intracellular calcium concentration with FLIPR, the following pretreatment was performed. First of all, assay buffer was prepared which was for adding fluorescent pigment Fluo4-AM (DOJIN) to the cells or washing the cells just before performing FLIPR assay. To a solution (hereinafter, HBSS/HEPES solution) where 20 mL of 1M HEPES (pH 7.4; Invitrogen) was added to 1000 mL of a physiological saline buffer (Hank's Balanced Salt Solution; HBSS) (Invitrogen), was added 10 mL of a solution where 710 mg of probenecid (Sigma) was dissolved into 5 mL of 1M aqueous NaOH solution and 5 mL of HBSS/HEPES solution was further added and mixed, and the assay buffer was thus prepared. Then, 50 μg of Fluo4-AM was dissolved into 22 μL of DMSO (DOJIN), the same amount of 20% pluronic acid (Molecular Probes) was added thereto and mixed, and the mixture was added to the 10.6 mL of the assay buffer where 105 μL of fetal bovine serum was added, to prepare a fluorescent pigment solution. The medium of the cells stably expressing TRPA1 was removed, 100 μL per well of the fluorescent pigment solution was dispensed immediately, followed by cultivation in a CO2 cultivator for 1 hour, and the fluorescent pigment was soaked in the cells. The cells after cultivation were washed using the assay buffer, followed by being set in FLIPR. Furthermore, a test sample, which was added to the cells stably expressing TRPA1, was prepared by using the assay buffer, and at the same time, was set in FLIPR. […]

Cytochrome P450(2D6), sequence (P10635 whole entry): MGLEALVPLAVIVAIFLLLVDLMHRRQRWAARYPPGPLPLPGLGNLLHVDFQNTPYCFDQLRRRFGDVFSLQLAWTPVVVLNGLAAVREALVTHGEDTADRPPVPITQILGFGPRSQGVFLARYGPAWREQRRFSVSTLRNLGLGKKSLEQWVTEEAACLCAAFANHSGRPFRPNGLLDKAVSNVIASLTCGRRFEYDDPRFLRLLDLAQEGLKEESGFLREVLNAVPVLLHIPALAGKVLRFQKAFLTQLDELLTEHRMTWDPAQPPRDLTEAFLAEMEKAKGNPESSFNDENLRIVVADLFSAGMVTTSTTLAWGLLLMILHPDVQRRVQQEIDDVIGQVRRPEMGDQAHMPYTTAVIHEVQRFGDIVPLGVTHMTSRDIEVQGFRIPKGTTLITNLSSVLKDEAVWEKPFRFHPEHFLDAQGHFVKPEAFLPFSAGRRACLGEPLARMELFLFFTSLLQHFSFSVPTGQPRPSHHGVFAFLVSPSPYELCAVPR
T1 sequence (O75762 whole entry R3C/R58T/K186N): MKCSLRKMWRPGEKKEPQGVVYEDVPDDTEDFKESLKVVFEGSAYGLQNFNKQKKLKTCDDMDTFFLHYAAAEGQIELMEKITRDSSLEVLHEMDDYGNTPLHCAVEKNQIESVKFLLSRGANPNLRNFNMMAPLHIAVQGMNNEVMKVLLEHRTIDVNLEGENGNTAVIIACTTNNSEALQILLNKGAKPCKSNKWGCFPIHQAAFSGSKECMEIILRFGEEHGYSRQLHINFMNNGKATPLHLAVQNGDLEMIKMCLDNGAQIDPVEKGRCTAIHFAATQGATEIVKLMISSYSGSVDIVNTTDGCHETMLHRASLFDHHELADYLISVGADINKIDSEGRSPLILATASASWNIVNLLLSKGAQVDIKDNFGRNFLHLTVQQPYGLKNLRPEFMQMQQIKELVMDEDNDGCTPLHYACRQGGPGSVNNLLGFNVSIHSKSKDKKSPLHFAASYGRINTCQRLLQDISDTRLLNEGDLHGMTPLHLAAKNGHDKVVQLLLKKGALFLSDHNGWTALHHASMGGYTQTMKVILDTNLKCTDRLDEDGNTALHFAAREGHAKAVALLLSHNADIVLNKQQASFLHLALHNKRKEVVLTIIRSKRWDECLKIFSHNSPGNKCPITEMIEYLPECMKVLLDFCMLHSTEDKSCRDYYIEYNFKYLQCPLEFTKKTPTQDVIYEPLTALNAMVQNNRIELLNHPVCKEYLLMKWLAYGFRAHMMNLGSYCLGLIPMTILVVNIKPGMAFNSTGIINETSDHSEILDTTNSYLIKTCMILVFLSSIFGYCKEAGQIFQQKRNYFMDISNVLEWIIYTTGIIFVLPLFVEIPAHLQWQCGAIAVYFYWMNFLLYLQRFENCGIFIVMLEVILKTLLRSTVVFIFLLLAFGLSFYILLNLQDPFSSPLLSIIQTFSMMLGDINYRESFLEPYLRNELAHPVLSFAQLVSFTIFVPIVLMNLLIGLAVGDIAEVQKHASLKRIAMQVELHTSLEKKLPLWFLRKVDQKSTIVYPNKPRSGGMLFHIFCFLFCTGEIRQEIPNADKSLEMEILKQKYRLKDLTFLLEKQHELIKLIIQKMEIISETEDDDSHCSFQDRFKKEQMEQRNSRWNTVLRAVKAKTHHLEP

Row | SMILES | melting point [°C] | ED50 (gastric emptying of rats) [mg/kg] | also measured
1 | O=C(/C=C1/C(=O)N(CC2CCC2)c2ccccc21)N1CCCC1 [Example 67, (3E)-1-(cyclobutylmethyl)-3-(2-oxo-2-pyrrolidin-1-ylethylidene)-1,3-dihydro-2H-indol-2-one] | 108 to 110 | – | –
2 | COc1cccc(CN2C(=O)/C(=C/C(=O)O)c3cccc(Cl)c32)c1 [Example 39] | – | 0.24 | –
3 | O=C(/C=C1/C(=O)N(CC2CCC2)c2ccccc21)N1CCC1 [Example 66, (3E)-3-(2-azetidin-1-yl-2-oxoethylidene)-1-(cyclobutylmethyl)-1,3-dihydro-2H-indol-2-one] | 133 to 135 | – | –
4 | NC(=O)/C=C1/C(=O)N(Cc2ccccc2)c2ccccc21 [Example 20] | – | 4.4 | –
5 | CCC(CC)CN1C(=O)/C(=C/C(=O)O)c2ccccc21 [Example 63, (2E)-[1-(2-ethylbutyl)-2-oxo-1,2-dihydro-3H-indol-3-ylidene]acetic acid] | 147 to 149 | – | –
6 | CCC(CC)CN1C(=O)/C(=C/C(=O)N2CCCC2)c2ccccc21 [Example 64, (3E)-1-(2-ethylbutyl)-3-(2-oxo-2-pyrrolidin-1-ylethylidene)-1,3-dihydro-2H-indol-2-one] | 71 to 73 | – | –
7 | CC(C)CN1C(=O)/C(=C/C(=O)O)c2cccc(F)c21 [Example 1, (2E)-(7-fluoro-1-isobutyl-2-oxo-1,2-dihydro-3H-indol-3-ylidene)acetic acid] | – | 0.13 | IC50 (Cytochrome P450(2D6)): > 20 µM; EC50 (human TRPA1): 4.27 µM
8 | CN(C)C(=O)/C=C1/C(=O)N(CC2CCCC2)c2c(F)cccc21 [Example 43, (2E)-2-[1-(cyclopentylmethyl)-7-fluoro-2-oxo-1,2-dihydro-3H-indol-3-ylidene]-N,N-dimethylacetamide] | 51 to 53 | – | IC50 (Cytochrome P450(2D6)): > 25 µM; EC50 (human TRPA1): 3.76 µM
9 | C#CCN1C(=O)/C(=C/C(C)=O)c2ccccc21 [comparative compound 2, (3E)-3-(2-oxopropyridene)-1-prop-2-in-1-yl-1,3-dihydro-2H-indol-2-one, reference compound] | – | 8.8 | –
10 | O=C(O)/C=C1/C(=O)N(CC2CC2)c2c(F)cccc21 [Example 37, (2E)-[1-(cyclopropylmethyl)-7-fluoro-2-oxo-1,2-dihydro-3H-indol-3-ylidene]acetic acid] | 171 to 173 | – | IC50 (Cytochrome P450(2D6)): > 50 µM
11 | CCC(CC)CN1C(=O)/C(=C/C(=O)N2CCC2)c2ccccc21 [Example 65, (3E)-3-(2-azetidin-1-yl-2-oxoethylidene)-1-(2-ethylbutyl)-1,3-dihydro-2H-indol-2-one] | 116 to 118 | – | –
12 | O=C(/C=C1/C(=O)N(CC2CCCC2)c2c(F)cccc21)N1CCC1 [Example 33] | – | – | EC50 (human TRPA1): 1.3 µM
13 | O=C(/C=C1/C(=O)N(CC2CCCC2)c2ccccc21)N1CCC1 [Example 62, (3E)-3-(2-azetidin-1-yl-2-oxoethylidene)-1-(cyclopentylmethyl)-1,3-dihydro-2H-indol-2-one] | 111 to 113 | – | –
14 | NC(=O)/C=C1/C(=O)N(CC2CCCC2)c2c(F)cccc21 [Example 29] | – | – | EC50 (human TRPA1): 0.66 µM
15 | O=C(/C=C1/C(=O)N(CC2CCCC2)c2c(F)cccc21)N1CCOCC1 [Example 40] | – | 0.59 | –
16 | CC(C)(C)CN1C(=O)/C(=C/C(=O)O)c2ccccc21 [Example 25] | – | 0.31 | –
17 | CCC(CC)CN1C(=O)/C(=C/C(=O)O)c2cccc(F)c21 [Example 36] | – | 0.069 | –
18 | O=C(/C=C1/C(=O)N(CC2CCCCC2)c2ccccc21)N1CCC1 [Example 61, (3E)-3-(2-azetidin-1-yl-2-oxoethylidene)-1-(cyclohexylmethyl)-1,3-dihydro-2H-indol-2-one] | 163 to 165 | – | –
19 | CC[C@H](C)CN1C(=O)/C(=C/C(=O)O)c2cccc(F)c21 [Example 47, (2E)-{7-fluoro-1-[(2S)-2-methylbutyl]-2-oxo-1,2-dihydro-3H-indol-3-ylidene}acetic acid] | 137 to 139 | 0.61 | EC50 (human TRPA1): 1.01 µM
20 | CN(C)C(=O)/C=C1/C(=O)N(CC2CCCCC2)c2ccccc21 [Example 59, (2E)-2-[1-(cyclohexylmethyl)-2-oxo-1,2-dihydro-3H-indol-3-ylidene]-N,N-dimethylacetamide] | 80 to 82 | – | –
21 | O=C(/C=C1/C(=O)N(CC2CCCC2)c2c(F)cccc21)N1CCCC1 [Example 30] | – | 0.42 | –
22 | CC(C)CCN1C(=O)/C(=C/C(=O)O)c2cccc(F)c21 [Example 49, (2E)-[7-fluoro-1-(3-methylbutyl)-2-oxo-1,2-dihydro-3H-indol-3-ylidene]acetic acid] | 142 to 144 | – | EC50 (human TRPA1): 0.83 µM
23 | O=C(O)/C=C1/C(=O)N(Cc2ccccc2)c2c(F)cccc21 [Example 18, (2E)-(1-benzyl-7-fluoro-2-oxo-1,2-dihydro-3H-indol-3-ylidene)acetic acid] | 168 to 170 | 3.6 | –
